# Test results taken from US7858630B2, “D3 and 5-HT2A receptor modulators” (Hoffmann-La Roche Inc., priority 2008, dated 2010).
# Legend:
# [1] = molecular target: T1, human dopamine D2 receptor (Homo sapiens, UniProt P14416); test: Radioligand binding ([3H]-spiperone) to membranes of HEK-293 EBNA cells expressing human D2 receptor; settings: human D2, 0.7 nM [3H]-spiperone, HEK-293 EBNA membranes, 1 h at RT
# T1 construct: expressed in transfected cells; host or cells: HEK-293 EBNA cells, transient transfection; membrane preparation
# Summary of the method: (§1)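 Membranes from HEK-293 EBNA cells transiently transfected with the receptor were incubated 1 h at RT with ten test concentrations (10 μM–0.1 nM) and ~0.7 nM [3H]-spiperone (D2), 0.5 nM [3H]-spiperone (D3) or 1.1 nM [3H]-ketanserin (5-HT2A). Nonspecific binding was set with 10 μM spiperone, bound radioactivity was read by filtration and scintillation, and Ki was taken from IC50 via Cheng-Prusoff.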
# [2] = molecular target: T2, human serotonin 5-HT2A receptor (Homo sapiens, UniProt P28223); test: Radioligand binding ([3H]-ketanserin) to membranes of HEK-293 EBNA cells expressing human 5-HT2A receptor; settings: 1.1 nM [3H]-ketanserin, HEK-293 EBNA membranes, 1 h at RT
# T2 construct: expressed in transfected cells; host or cells: HEK-293 EBNA cells, transient transfection; membrane preparation
# Summary of the method: as §1
# [3] = molecular target: T3, human dopamine D3 receptor (Homo sapiens, UniProt P35462); test: Radioligand binding ([3H]-spiperone) to membranes of HEK-293 EBNA cells expressing human D3 receptor; settings: human D3, 0.5 nM [3H]-spiperone, HEK-293 EBNA membranes, 1 h at RT
# T3 construct: expressed in transfected cells; host or cells: HEK-293 EBNA cells, transient transfection; membrane preparation
# Summary of the method: as §1
# T1 sequence (P14416 whole entry): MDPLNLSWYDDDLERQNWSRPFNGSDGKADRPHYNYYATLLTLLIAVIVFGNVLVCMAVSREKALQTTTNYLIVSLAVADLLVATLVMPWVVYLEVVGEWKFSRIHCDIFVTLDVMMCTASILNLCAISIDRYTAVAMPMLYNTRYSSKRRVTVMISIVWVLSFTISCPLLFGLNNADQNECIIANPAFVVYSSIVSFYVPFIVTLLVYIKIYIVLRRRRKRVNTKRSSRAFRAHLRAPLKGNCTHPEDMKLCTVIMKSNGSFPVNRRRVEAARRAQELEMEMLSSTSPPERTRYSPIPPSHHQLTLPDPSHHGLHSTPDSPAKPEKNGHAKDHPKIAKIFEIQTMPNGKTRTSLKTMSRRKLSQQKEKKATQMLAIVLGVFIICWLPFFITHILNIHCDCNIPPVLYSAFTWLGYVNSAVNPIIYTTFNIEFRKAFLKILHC
# T3 sequence (P35462 whole entry): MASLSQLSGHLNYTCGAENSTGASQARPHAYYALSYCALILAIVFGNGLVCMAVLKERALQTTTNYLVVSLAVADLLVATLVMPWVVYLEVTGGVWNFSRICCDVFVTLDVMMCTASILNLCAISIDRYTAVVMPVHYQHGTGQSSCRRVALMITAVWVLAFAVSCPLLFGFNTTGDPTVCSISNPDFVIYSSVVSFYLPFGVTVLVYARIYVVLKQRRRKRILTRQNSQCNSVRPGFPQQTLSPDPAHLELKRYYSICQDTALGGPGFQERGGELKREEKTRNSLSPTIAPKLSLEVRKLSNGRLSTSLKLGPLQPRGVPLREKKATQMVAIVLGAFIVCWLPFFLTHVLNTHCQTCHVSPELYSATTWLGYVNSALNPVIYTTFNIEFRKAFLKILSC
# T2 sequence (P28223 whole entry): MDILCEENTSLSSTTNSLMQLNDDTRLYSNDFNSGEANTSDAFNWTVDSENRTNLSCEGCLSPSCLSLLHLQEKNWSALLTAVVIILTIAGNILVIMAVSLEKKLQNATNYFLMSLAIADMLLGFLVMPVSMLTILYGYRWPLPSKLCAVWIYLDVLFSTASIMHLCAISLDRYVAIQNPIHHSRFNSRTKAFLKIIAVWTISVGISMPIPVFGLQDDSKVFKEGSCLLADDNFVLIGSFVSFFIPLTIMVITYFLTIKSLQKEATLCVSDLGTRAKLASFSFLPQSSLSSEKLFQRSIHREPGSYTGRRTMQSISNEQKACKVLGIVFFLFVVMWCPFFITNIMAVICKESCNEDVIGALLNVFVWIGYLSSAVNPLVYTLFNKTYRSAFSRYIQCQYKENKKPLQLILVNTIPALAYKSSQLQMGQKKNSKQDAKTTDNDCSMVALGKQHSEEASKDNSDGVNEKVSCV
SMILES,Ki [1] [nM],Ki [2] [nM],Ki [3] [nM]
"CO[C@H]1CC[C@H](CC(=O)N[C@H]2CC[C@H](CCN3CCN(c4noc5cc(Cl)c(Cl)cc45)CC3)CC2)CC1 [Example 96, N-trans-(4-{2-[4-(5,6-Dichloro-benzo[d]isoxazol-3-yl)-piperazin-1-yl]-ethyl}-cyclohexyl)-2-trans-(4-methoxy-cyclohexyl)-acetamide]",11600,51.4,35.4
"O=C(CC1CCOCC1)N[C@H]1CC[C@H](CCN2CCN(c3noc4cc(Cl)c(Cl)cc34)CC2)CC1 [Example 97, N-trans-(4-{2-[4-(5,6-Dichloro-benzo[d]isoxazol-3-yl)-piperazin-1-yl]-ethyl}-cyclohexyl)-2-(tetrahydro-pyran-4-yl)-acetamide]",11600,30.7,9.45
"COCCC(=O)N[C@H]1CC[C@H](CCN2CCN(c3noc4cc(C)ccc34)CC2)CC1 [Example 98, 3-Methoxy-N-trans-(4-{2-[4-(6-methyl-benzo[d]isoxazol-3-yl)-piperazin-1-yl]-ethyl}-cyclohexyl)-propionamide]",222,5.21,7.42
"CCC(=O)N[C@H]1CC[C@H](CCN2CCN(c3noc4cc(C)ccc34)CC2)CC1 [Example 99, N-trans-(4-{2-[4-(6-Methyl-benzo[d]isoxazol-3-yl)-piperazin-1-yl]-ethyl}-cyclohexyl)-propionamide]",207,5.92,5.8
"CO[C@H]1CC[C@H](CC(=O)N[C@H]2CC[C@H](CCN3CCN(c4noc5cc(C)ccc45)CC3)CC2)CC1 [Example 100, 2-trans-(4-Methoxy-cyclohexyl)-N-trans-(4-{2-[4-(6-methyl-benzo[d]isoxazol-3-yl)-piperazin-1-yl]-ethyl}-cyclohexyl)-acetamide]",494,5.3,17.7
"Cc1ccc2c(N3CCN(CC[C@H]4CC[C@H](NC(=O)CC5OCCCO5)CC4)CC3)noc2c1 [Example 101, 2-[1,3]Dioxan-2-yl-N-trans-(4-{2-[4-(6-methyl-benzo[d]isoxazol-3-yl)-piperazin-1-yl]-ethyl}-cyclohexyl)-acetamide]",384,5.15,8.33
"Cc1ccc2c(N3CCN(CC[C@H]4CC[C@H](NC(=O)CC5COCCO5)CC4)CC3)noc2c1 (stereo partly drawn) [Example 102, 2-[1,4]Dioxan-2-yl-N-trans-(4-{2-[4-(6-methyl-benzo[d]isoxazol-3-yl)-piperazin-1-yl]-ethyl}-cyclohexyl)-acetamide]",333,2.65,13.9
"COC(CC(=O)N[C@H]1CC[C@H](CCN2CCN(c3noc4cc(C)ccc34)CC2)CC1)OC [Example 103, 3,3-Dimethoxy-N-trans-(4-{2-[4-(6-methyl-benzo[d]isoxazol-3-yl)-piperazin-1-yl]-ethyl}-cyclohexyl)-propionamide]",206,2.3,6.96
"COCCC(=O)N[C@H]1CC[C@H](CCN2CCN(c3noc4ccc(C)cc34)CC2)CC1 [Example 104, 3-Methoxy-N-trans-(4-{2-[4-(5-methyl-benzo[d]isoxazol-3-yl)-piperazin-1-yl]-ethyl}-cyclohexyl)-propionamide]",554,20.9,2.59
"Cc1ccc2c(N3CCN(CC[C@H]4CC[C@H](NC(=O)CS(C)(=O)=O)CC4)CC3)noc2c1 [Example 105, 2-Methanesulfonyl-N-trans-(4-{2-[4-(6-methyl-benzo[d]isoxazol-3-yl)-piperazin-1-yl]-ethyl}-cyclohexyl)-acetamide]",170,4,5
"CC(=O)N[C@H]1CC[C@H](CCN2CCN(c3noc4cc(F)c(C)cc34)CC2)CC1 [Example 106, N-trans-(4-{2-[4-(6-Fluoro-5-methyl-benzo[d]isoxazol-3-yl)-piperazin-1-yl]-ethyl}-cyclohexyl)-acetamide]",2380,31.9,9.04
"COCC(=O)N[C@H]1CC[C@H](CCN2CCN(c3noc4cc(F)c(C)cc34)CC2)CC1 [Example 107, N-trans-(4-{2-[4-(6-Fluoro-5-methyl-benzo[d]isoxazol-3-yl)-piperazin-1-yl]-ethyl}-cyclohexyl)-2-methoxy-acetamide]",674,11.2,20
"COCCC(=O)N[C@H]1CC[C@H](CCN2CCN(c3noc4cc(F)c(C)cc34)CC2)CC1 [Example 108, N-trans-(4-{2-[4-(6-Fluoro-5-methyl-benzo[d]isoxazol-3-yl)-piperazin-1-yl]-ethyl}-cyclohexyl)-3-methoxy-propionamide]",297,18.9,8
"Cc1cc2c(N3CCN(CC[C@H]4CC[C@H](NC(=O)CC5CC5)CC4)CC3)noc2cc1F [Example 109, 2-Cyclopropyl-N-trans-(4-{2-[4-(6-fluoro-5-methyl-benzo[d]isoxazol-3-yl)-piperazin-1-yl]-ethyl}-cyclohexyl)-acetamide]",10000,32.6,14.5
"CCOCC(=O)N[C@H]1CC[C@H](CCN2CCN(c3noc4cc(F)c(C)cc34)CC2)CC1 [Example 110, 2-Ethoxy-N-trans-(4-{2-[4-(6-fluoro-5-methyl-benzo[d]isoxazol-3-yl)-piperazin-1-yl]-ethyl}-cyclohexyl)-acetamide]",1550,10.1,31.6
"Cc1cc2c(N3CCN(CC[C@H]4CC[C@H](NC(=O)CC5OCCCO5)CC4)CC3)noc2cc1F [Example 111, 2-[1,3]Dioxan-2-yl-N-trans-(4-{2-[4-(6-fluoro-5-methyl-benzo[d]isoxazol-3-yl)-piperazin-1-yl]-ethyl}-cyclohexyl)-acetamide]",4040,7.66,10.6
"O=C(CC1CCOCC1)N[C@H]1CC[C@H](CCN2CCN(c3noc4cc(F)ccc34)CC2)CC1 [Example 112, N-trans-(4-{2-[4-(6-Fluoro-benzo[d]isoxazol-3-yl)-piperazin-1-yl]-ethyl}-cyclohexyl)-2-(tetrahydro-pyran-4-yl)-acetamide]",119,3.51,4.33
"Cc1cc2c(N3CCN(CC[C@H]4CC[C@H](NC(=O)CC5COCCO5)CC4)CC3)noc2cc1F (stereo partly drawn) [Example 113, 2-[1,4]Dioxan-2-yl-N-trans-(4-{2-[4-(6-fluoro-5-methyl-benzo[d]isoxazol-3-yl)-piperazin-1-yl]-ethyl}-cyclohexyl)-acetamide]",> 10500,14,25
"Cc1cc2c(N3CCN(CC[C@H]4CC[C@H](NC(=O)C[C@@H]5COCCO5)CC4)CC3)noc2cc1F [Example 114, 2-(R)-[1,4]Dioxan-2-yl-N-trans-(4-{2-[4-(6-fluoro-5-methyl-benzo[d]isoxazol-3-yl)-piperazin-1-yl]-ethyl}-cyclohexyl)-acetamide]",> 9700,17,31
"Cc1cc2c(N3CCN(CC[C@H]4CC[C@H](NC(=O)C[C@H]5COCCO5)CC4)CC3)noc2cc1F [Example 115, 2-(S)-[1,4]Dioxan-2-yl-N-trans-(4-{2-[4-(6-fluoro-5-methyl-benzo[d]isoxazol-3-yl)-piperazin-1-yl]-ethyl}-cyclohexyl)-acetamide]",> 9700,10,38
"Cc1cc2c(N3CCN(CC[C@H]4CC[C@H](NC(=O)C[C@H](O)C(F)(F)F)CC4)CC3)noc2cc1F [Example 116, (S)-4,4,4-Trifluoro-N-trans-(4-{2-[4-(6-fluoro-5-methyl-benzo[d]isoxazol-3-yl)-piperazin-1-yl]-ethyl}-cyclohexyl)-3-hydroxy-butyramide]",3280,33,20
"Cc1cc2c(N3CCN(CC[C@H]4CC[C@H](NC(=O)CC5CCCCO5)CC4)CC3)noc2cc1F (stereo partly drawn) [Example 117, N-trans-(4-{2-[4-(6-Fluoro-5-methyl-benzo[d]isoxazol-3-yl)-piperazin-1-yl]-ethyl}-cyclohexyl)-2-(tetrahydro-pyran-2-yl)-acetamide]",> 2000,8,33
"Cc1cc2c(N3CCN(CC[C@H]4CC[C@H](NC(=O)CC5CCCO5)CC4)CC3)noc2cc1F (stereo partly drawn) [Example 118, N-trans-(4-{2-[4-(6-Fluoro-5-methyl-benzo[d]isoxazol-3-yl)-piperazin-1-yl]-ethyl}-cyclohexyl)-2-(tetrahydro-furan-2-yl)-acetamide]",1070,21,22
"COC(C)C(=O)N[C@H]1CC[C@H](CCN2CCN(c3noc4cc(F)c(C)cc34)CC2)CC1 (stereo partly drawn) [Example 119, N-trans-(4-{2-[4-(6-Fluoro-5-methyl-benzo[d]isoxazol-3-yl)-piperazin-1-yl]-ethyl}-cyclohexyl)-2-methoxy-propionamide]",2270,10,53
